For one data set, the target named is T1, recombinant Plk1 protein (Homo sapiens, UniProt P53350).
T1 construct: histidine tag (N); made in house; host or cells: SF9 insect cells
The experiment in a line: Plk1 kinase activity inhibition assay (33P-ATP, alpha casein substrate, flash plates). The class given is biochemical. The following applies: enzymatic assay, 100 nM Li-ATP, 80 minutes at 30° C. An outline of the steps:
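N-terminally His-tagged human Plk1 from SF9 cells (50–100 ng/well) phosphorylated alpha casein (500 ng/well) with 100 nM ATP including 33P-ATP at pH 7.5, with Mg2+ and Mn2+, 80 min at 30 °C. 33P incorporation read on scintillator-coated flash plates; IC50 derived.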

Experimental findings from patent US8273890B2 (4SC AG, priority 2007, dated 2012) are described below.

T1 sequence (P53350 whole entry): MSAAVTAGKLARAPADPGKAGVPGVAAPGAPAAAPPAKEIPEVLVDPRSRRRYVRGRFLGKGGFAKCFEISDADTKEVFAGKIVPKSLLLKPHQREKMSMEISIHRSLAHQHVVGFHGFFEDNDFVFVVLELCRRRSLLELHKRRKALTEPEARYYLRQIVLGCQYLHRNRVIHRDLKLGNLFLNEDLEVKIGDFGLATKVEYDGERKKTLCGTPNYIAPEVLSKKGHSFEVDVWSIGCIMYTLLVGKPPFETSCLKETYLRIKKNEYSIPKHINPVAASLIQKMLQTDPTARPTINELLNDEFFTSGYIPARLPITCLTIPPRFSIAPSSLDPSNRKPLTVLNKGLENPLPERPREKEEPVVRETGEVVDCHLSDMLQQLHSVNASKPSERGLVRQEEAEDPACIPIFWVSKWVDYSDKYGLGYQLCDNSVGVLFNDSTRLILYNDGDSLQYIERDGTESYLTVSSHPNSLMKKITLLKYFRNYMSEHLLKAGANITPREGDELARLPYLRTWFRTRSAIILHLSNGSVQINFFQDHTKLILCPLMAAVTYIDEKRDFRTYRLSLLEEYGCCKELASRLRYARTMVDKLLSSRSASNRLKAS

A word on the IC50: it is the concentration that inhibits the measured activity by half. In general, melting point refers to the temperature of the solid-liquid transition. As for `NC(=O)c1sc(-n2cnc3cnc(Cl)cc32)cc1OCc1ccccc1C(F)(F)F` [Example 1, 5-(6-Chloro-1H-imidazo[4,5-c]pyridin-1-yl)-3-{[2-(trifluoromethyl)benzyl]oxy}thiophene-2-carboxamide], the melting point was 248 to 249 °C (dec.). Further, on recombinant Plk1 protein, the IC50 was in the range of 10 to 100 nM. In the same order, the values of `NC(=O)c1sc(-n2cnc3cnccc32)cc1OCc1ccccc1C(F)(F)F` [Example 2, 5-(1H-Imidazo[4,5-c]pyridin-1-yl)-3-{[2-(trifluoromethyl)benzyl]oxy}thio-phene-2-carboxamide] are 226 to 227 °C (dec.) and 10 to 100 nM. For the compound `C[C@@H](Oc1cc(-n2cnc3cnc(CN4CCN(c5ccncc5)CC4)cc32)sc1C(N)=O)c1ccccc1Cl` [Example 131, 3-[(1R)-1-(2-chlorophenyl)ethoxy]-5-{6-[(4-pyridin-4-ylpiperazin-1-yl)methyl]-1H-imidazo[4,5-c]pyridin-1-yl}thiophene-2-carboxamide], at recombinant Plk1 protein, the IC50 is 10 to 100 nM. The same measure, in the same setting: under `CCOc1ccc(OCC)c(COc2cc(-n3cnc4cnc(CN5CCN(C)CC5)cc43)sc2C(N)=O)c1` [Example 155, 3-[(2,5-diethoxybenzyl)oxy]-5-{6-[(4-methylpiperazin-1-yl)methyl]-1H-imidazo[4,5-c]pyridin-1-yl}thiophene-2-carboxamide] stands 100 to 1000 nM; under `Cc1ccccc1C(C)Oc1cc(-n2cnc3cnc(CN4CCN(C)CC4)cc32)sc1C(N)=O` (centres unmarked) [Example 148, 3-[1-(2-methylphenyl)ethoxy]-5-{6-[(4-methylpiperazin-1-yl)methyl]-1H-imidazo[4,5-c]pyridin-1-yl}thiophene-2-carboxamide], below 10 nM. The same measure, in the same setting: under `C[C@@H](Oc1cc(-n2cnc3cc(CNS(C)(=O)=O)ncc32)sc1C(N)=O)c1ccccc1C(F)(F)F` [Example 90, 5-(6-{[(methylsulfonyl)amino]methyl}-3H-imidazo[4,5-c]pyridin-3-yl)-3-{(1R)-1-[2-(trifluoromethyl)phenyl]ethoxy}thiophene-2-carboxamide] stands 10 to 100 nM. For the compound `C[C@@H](Oc1cc(-n2cnc3cnc(CN4CCN(C(=O)c5ccccc5)CC4)cc32)sc1C(N)=O)c1ccccc1C(F)(F)F` [Example 78, 5-{6-[(4-benzoylpiperazin-1-yl)methyl]-1H-imidazo[4,5-c]pyridin-1-yl}-3-{(1R)-1-[2-(trifluoromethyl)phenyl]ethoxy}thiophene-2-carboxamide], the IC50 on recombinant Plk1 protein fell in the range of 10 to 100 nM.

Regarding `C[C@@H](Oc1cc(-n2cnc3cnc(CN4CCN(C)CC4)cc32)sc1C(N)=O)c1ccccc1Br` [Example 98, 3-[(1R)-1-(2-bromophenyl)ethoxy]-5-{6-[(4-methylpiperazin-1-yl)methyl]-1H-imidazo[4,5-c]pyridin-1-yl}thiophene-2-carboxamide], the IC50 on recombinant Plk1 protein is below 10 nM. Same read-out and setting: with `C[C@@H](Oc1cc(-n2cnc3cnc(CN4CCN(C)CC4)cc32)sc1C(N)=O)c1ccccc1Cl` [Example 100, 3-[(1R)-1-(2-chlorophenyl)ethoxy]-5-{6-[(4-methylpiperazin-1-yl)methyl]-1H-imidazo[4,5-c]pyridin-1-yl}thiophene-2-carboxamide] the figure was below 10 nM.
